The conditions of data set [1]: low concentration of GSH, within 20 minutes; cited from earlier work.
In data set [2] the test system is glutaredoxins (Grx1 and Grx2) with GR and GSH. The data set is described as follows: Challenge with GR/GSH/Grx system reductants, cell-free. The note with it: 10 μM probe, GR 20 nM, GSH 100 μM, Grx1 or Grx2 up to physiological concentrations. It is filed as biochemical. The source says: (§1) This cell-free assay examined the stability of dichalcogenide-based reduction-triggered compounds of the invention when exposed to cellular monothiol reductant GSH, and its cellular partner reductants glutathione reductase (GR) and glutaredoxins (Grx1 and Grx2).
(§2) Assay Conditions: A black 96-well plate with black bottom was charged with solutions of fluorophore-releasing reduction-triggered probes that are compounds of the invention (P1, P2, P3, P6 and P7) or that are not compounds of the invention and reveal the performance of prior art systems (disulfide X26), reaching 100 μL final volume, 1% final DMSO, 10 μM probe, aq. TE buffer (pH 7.4), with the indicated concentrations of reductant (in FIG. 1a) or concentration ratios of reductant to probe (in FIG. 1b-d). TCEP (100 μM) was used as a quantitative reference reductant; and in the GR/GSH/Grx assays (FIG. 1c-d), GR was used at 20 nM, GSH at 100 μM, to maintain Grx in a reduced state suitable for challenging the probes without supplying a high concentration of either GSH or GR. Reaction mixtures were incubated at 37° C. for up to 6 h while measuring fluorescence intensity F over time, using a BMG Labtech FLUOstar Omega platereader (λexc=355 nm, λem=530 nm).
(§3) Data Representation: F^TCEP is the maximum possible fluorescence increase, corresponding to complete reduction-triggered cargo release by the TCEP incubation. F/F^TCEP thus gives the fluorescence intensity, as a fraction of the maximum possible fluorescence signal, at the indicated times.

Data set [3] is described as follows: Challenge with monothiol reductant GSH, cell-free fluorogenic cargo release. It is filed as physicochemical. The note with it: 10 μM probe; for sensitivity to GSH in GSH titration, signal F/F^TCEP: 3 h timepoint, GSH up to 10 mM; for cargo release when challenged with GSH / GSH system reductants: relevant cellular levels.
Description: as §1, §2, §3

Data set [4] deals with A549 lung cancer cell line. The data set is described as follows: Cellular reduction assay in A549 cells. It counts as cell-based, human. Conditions: time- and dose-dependence. The procedure: (§4) Assay Conditions: Cells were cultured under standard conditions (Gao, L. et al. Cell Chemical Biology 2021, 28, 1-14. https://doi.org/10.1016/j.chembiol.2020.11.007), left to adhere for 24 h, then compounds were added to 100 μM with 1% vol DMSO. Fluorescence timecourse measurements were acquired as in the chemoreductant assay, with all conditions in triplicates.
(§5) Data Representation: F.I.(t) is the fluorescence intensity signal increase as compared to time zero signal (fluorescence intensity immediately following compound addition, before probe activation could occur), in arbitrary units although with the same detection settings for all probes releasing the same cargo. This corresponds to reduction-triggered cargo release.

For data set [5], the target named is T1, human recombinant thioredoxin reductase 1 (TrxR1) (Homo sapiens, UniProt Q16881).
T1 sequence (Q16881 1-499 isoform Q16881-5): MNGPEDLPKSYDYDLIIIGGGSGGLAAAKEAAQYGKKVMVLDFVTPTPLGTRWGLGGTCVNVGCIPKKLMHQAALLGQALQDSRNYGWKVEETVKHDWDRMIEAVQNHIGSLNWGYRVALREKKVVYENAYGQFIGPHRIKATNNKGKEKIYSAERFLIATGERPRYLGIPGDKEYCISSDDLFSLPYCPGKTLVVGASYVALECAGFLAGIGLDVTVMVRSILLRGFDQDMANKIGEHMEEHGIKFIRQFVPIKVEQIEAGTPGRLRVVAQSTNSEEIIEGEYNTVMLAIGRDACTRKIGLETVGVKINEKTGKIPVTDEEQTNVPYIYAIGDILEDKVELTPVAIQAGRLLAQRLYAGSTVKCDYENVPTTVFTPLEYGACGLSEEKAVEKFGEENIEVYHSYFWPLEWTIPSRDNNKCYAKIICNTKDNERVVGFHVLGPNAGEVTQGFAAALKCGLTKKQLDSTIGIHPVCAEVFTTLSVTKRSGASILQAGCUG
The data set is described as follows: Enzymatic activation assay with TrxR1, cell-free. It is filed as biochemical. Conditions: 10 μM probe; for cargo release on exposure to TrxR1 (timecourse): 20 nM TrxR1, 100 μM NADPH, 37 °C; for response in TrxR titration: TrxR down to 5 nM. The procedure:
(§6) This cell-free assay (see FIG. 2) examined the processing of dichalcogenide-based fluorophore-releasing reduction-triggered probes that are compounds of the invention, by components of the cellular thioredoxin system.
(§7) Assay conditions and data representation: A black 96-well plate with black bottom was charged with solutions of probes (P1, P2, P3, P6, P7) to reach final reaction conditions: 100 μL of aq. TE buffer (pH 7.4), 10 μM probe concentration, 1 vol % DMSO, and 20 nM of human recombinant thioredoxin reductase 1 (TrxR1; in FIG. 1a), or 20 nM of either TrxR1 or thioredoxin reductase Sec498Cys mutant (TrxR1 U498C or “mut”; in FIG. 1b), or the indicated probe-to-reductant concentration ratios of TrxR1 (in FIG. 1c) or human recombinant thioredoxin 1 (Trx1; in FIG. 1d); with the final step being the addition of NADPH (100 μM final). The reaction mixtures were incubated at 37° C. for 3 to 6 h as shown with timecourse measurements of fluorescence as for FIG. 1. Data representation as for FIG. 1.

For the next data set, the target named is T2, TrxR1 (Mus musculus, UniProt Q9JMH6).
T2 construct: P6 is processed by native (selenium-incorporating) TrxR1 in cells; endogenous in cells; host or cells: MEF wildtype and MEF with TrxR1 knockout
T2 sequence (Q9JMH6 1-499 isoform Q9JMH6-2): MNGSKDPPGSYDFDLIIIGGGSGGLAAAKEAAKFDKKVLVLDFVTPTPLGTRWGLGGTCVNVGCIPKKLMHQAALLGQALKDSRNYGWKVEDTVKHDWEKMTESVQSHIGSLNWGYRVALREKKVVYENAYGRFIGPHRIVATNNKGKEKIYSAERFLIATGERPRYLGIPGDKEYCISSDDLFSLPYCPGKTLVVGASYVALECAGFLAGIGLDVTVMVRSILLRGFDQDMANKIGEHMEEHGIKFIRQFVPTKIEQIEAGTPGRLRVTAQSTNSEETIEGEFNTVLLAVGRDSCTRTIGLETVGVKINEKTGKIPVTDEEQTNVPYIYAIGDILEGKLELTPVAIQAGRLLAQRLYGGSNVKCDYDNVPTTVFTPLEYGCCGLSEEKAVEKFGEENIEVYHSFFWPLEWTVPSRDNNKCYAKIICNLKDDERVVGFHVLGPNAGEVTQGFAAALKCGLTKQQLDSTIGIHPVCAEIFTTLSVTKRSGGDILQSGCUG
The experiment in a line: Cellular reduction assay in MEF cells with TrxR1 knockout. Conditions: MEF wildtype vs TrxR1 knockout. It is filed as cell-based. The procedure: as §4, §5

The subject of data set [6] is selenium-dependent reductases in cells. The experiment in a line: Cellular reduction assay with selenium starvation or supplementation. It counts as cell-based. As to the method: as §4, §5
The subject of data set [7] is HeLa cervical cancer cell line. The experiment in a line: Cellular reduction assay in HeLa cells (fluorescence timecourse). It is filed as cell-based, human. Conditions: time- and dose-dependence. The procedure:
as §4, §5

Data set [8] addresses T3, thioredoxin reductase Sec498Cys mutant (TrxR1 U498C) (Homo sapiens, UniProt Q16881).
T3 sequence (Q16881 with tags, fused parts or gaps isoform Q16881-5): T1 sequence (Q16881 1-499 isoform Q16881-5) with U498C
The data set is described as follows: Enzymatic activation assay with TrxR1 Sec498Cys mutant, cell-free. It is filed as biochemical. The note with it: 10 μM probe, 20 nM mutant, 100 μM NADPH. The procedure: as §6, §7

Another data set has as its target T4, TrxR (Homo sapiens, UniProt Q16881).
T4 construct: P6 is processed by native (selenium-incorporating) TrxR1 in cells; endogenous in cells; host or cells: HeLa
T4 sequence (Q16881 1-499 isoform Q16881-5): T1 sequence (Q16881 1-499 isoform Q16881-5)
The data set is described as follows: Cellular reduction assay in HeLa cells with chemical TrxR inhibition (TRi compounds). It is filed as cell-based. As to the method: as §4, §5

For data set [9], the target named is T5, human recombinant thioredoxin 1 (Trx1) (Homo sapiens, UniProt P10599).
T5 sequence (P10599 2-105 limits assumed): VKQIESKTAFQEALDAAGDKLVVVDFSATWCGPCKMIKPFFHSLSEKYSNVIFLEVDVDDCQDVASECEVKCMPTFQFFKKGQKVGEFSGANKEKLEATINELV
The experiment in a line: Trx1 titration in Trx1/TrxR1 system, cell-free. It is filed as biochemical. The note with it: 10 μM probe. The procedure: as §6, §7

The next data set concerns HeLa cells. The data set is described as follows: In vitro cell viability assay (resazurin). It is filed as cell-based, human. The note with it: 48 h incubation, read-out: EC50 (antiproliferation / cell viability). As to the method:
Assay Conditions: HeLa cells were cultured under standard conditions (Gao, L. et al. Cell Chemical Biology 2021, 28, 1-14. https://doi.org/10.1016/j.chembiol.2020.11.007), left to adhere for 24 h, then compounds were added from DMSO stock solution and adjusted to 1% vol DMSO. Cells were further incubated for 48 h, then 0.20 volume equivalents of a solution of resazurin in PBS (0.15 mg/mL) were added and incubated for 3 hours, then fluorescence (ex 544 nm, em 590 nm) was detected on a fluorescence platereader. Cell viability (%) is calculated from the fluorescence values, relative to a control experiment with no compound added.
(Alamar Blue is a resazurin reagent that responds to reducing activity.)

Where a chain is given by its changes, count along the chain named. Entries after “also recorded” stand apart in the source; their conditions may differ. Read-outs that look alike come from different tables or passages of the source.

For the compound `COc1cccc2ccc3c(c12)Oc1cc(NC(=O)OCC[Se][Se]CCO)ccc1C31OC(=O)c2ccccc21` (centres unmarked) [E2], the “fluorescence signal with GSH” value in data set [1] is reported as “strong signal turn-on”.
Turning to `CN1CCN(C(=O)CCN(C(=O)Oc2ccc(Cl)cc2-c2nc3ccc(Cl)cc3c(=O)[nH]2)[C@H]2CCS[Se]C2)CC1` [P6], the “triggering by GR/GSH/Grx systems” value in data set [2] was “resist triggering”. Moreover, in [3], the “sensitivity to GSH in GSH titration, signal F/F^TCEP” value is recorded as “completely insensitive” and the “cargo release when challenged with GSH / GSH system reductants” value is listed as “totally resisted releasing cargo”. For the same compound, in data set [4], the “fluorescence signal generation in A549 cells” value is “time- and dose-dependent fluorescence increase; also recorded: dose- and time-dependently generated signal”. In [5], the “cargo release on exposure to TrxR1 (timecourse)” value is listed as “release their cargo rapidly; also recorded: release cargo very rapidly” and the “response in TrxR titration” value was “excellently responsive; also recorded: sensitively”. Moreover, on TrxR1, the “effect of TrxR1 knockout on cellular signal” value is reported as “almost entirely suppressed by knockout”. In addition, the “effect of selenium starvation/supplementation on cellular signal generation” value in data set [6] is recorded as “strongly suppressed by selenium starvation”. The “fluorescence signal generation F.I.(t) in HeLa cells” value in data set [7] is “strong time- and dose-dependent fluorescent signal increase; also recorded: generated strong fluorescent signal”. In addition, the “cargo release by TrxR1 U498C mutant” value in data set [8] is recorded as “do not respond to the mutant; also recorded: did not cause cargo release”. In addition, at TrxR, the “effect of chemical TrxR inhibition on cellular signal” value is “suppresses P6 signal generation; also recorded: almost entirely suppressed”. The “cargo release with increasing Trx1 at fixed TrxR1” value in data set [9] is reported as “identical release of cargo; also recorded: did not affect the outcomes”.
In the case of `CN1CCN(C(=O)CCN(C(=O)Oc2ccc(Cl)cc2-c2nc3ccc(Cl)cc3c(=O)[nH]2)[C@H]2CC[Se]SC2)CC1` [P7], the “triggering by GR/GSH/Grx systems” value in [2] is recorded as “resist triggering; also recorded: total resistance to Grx challenge”. For the same compound, in [3], the “sensitivity to GSH in GSH titration, signal F/F^TCEP” value is recorded as “very low sensitivity” and the “cargo release when challenged with GSH / GSH system reductants” value was “high resistance to GSH challenge”. For the same compound, in [5], the “cargo release on exposure to TrxR1 (timecourse)” value is recorded as “release their cargo rapidly; also recorded: release cargo very rapidly” and the “response in TrxR titration” value is “excellently responsive; also recorded: sensitively”. For the same compound, in [7], the “fluorescence signal generation F.I.(t) in HeLa cells” value is “strong time- and dose-dependent fluorescent signal increase; also recorded: generated strong fluorescent signal”. The “cargo release by TrxR1 U498C mutant” value in [8] is “do not respond to the mutant; also recorded: did not cause cargo release”. In addition, in data set [9], the “cargo release with increasing Trx1 at fixed TrxR1” value is reported as “identical release of cargo; also recorded: did not affect the outcomes”.
Regarding `CN(C(=O)Oc1cc2c(c3ccccc13)[C@H](CCl)CN2C(=O)c1cc2cc(OCCCN3CCC3)ccc2[nH]1)[C@H]1CCS[Se]C1` [P8], the EC50 with HeLa cells was under 100 nM; in the data set on HeLa cells (Homo sapiens, 48 h) it was about 60 nM.
As for `CNCCSSCCN(C)C(=O)Oc1ccc(Cl)cc1-c1nc2ccc(Cl)cc2c(=O)[nH]1` [X26, 4-chloro-2-(6-chloro-4-oxo-3,4-dihydroquinazolin-2-yl)phenyl methyl(2-((2-(methylamino)ethyl)disulfaneyl)ethyl)carbamate, reference compound], in [3] (subphysiological GSH 1 mM, TE buffer pH 7.4, 37 °C), the “response to GSH-triggered release of fluorescent cargo PQ-OH (timecourse)” value is “rapidly and strongly affected; also recorded: rapid response”. Moreover, the “effect of selenium starvation/supplementation on cellular signal generation” value in data set [6] is listed as “not sensitive to selenium supplementation”. Besides, the “fluorescence signal generation F.I.(t) in HeLa cells” value in data set [7] was “also generated signal”.

These data come from patent US20240156965A1, “DICHALCOGENIDE PRODRUGS” (Ludwig-Maximilians-Universitat Munchen, priority 2021, published 2024).
